US10065990B2, “Cyclic peptide compound, and preparation method, pharmaceutical composition and use thereof” (HANGZHOU GUANYU BIO-MEDICAL CO., LTD, priority 2013, dated 2018)

Experiments:
HDAC7 = biological target: T1, HDAC7 (Homo sapiens, UniProt Q8WUI4); assay: HDAC biochemical activity measurement (fluorescent substrate deacetylation);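 note: fluorogenic deacetylation assay using acetyl-lysine substrate at 20 µM, enzyme and compound incubated 30 min at 37 °C, then developer added, fluorescence read at 360/460 nm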; settings: HDAC7; 37° C. 30 minutes
T1 sequence (Q8WUI4 1-952): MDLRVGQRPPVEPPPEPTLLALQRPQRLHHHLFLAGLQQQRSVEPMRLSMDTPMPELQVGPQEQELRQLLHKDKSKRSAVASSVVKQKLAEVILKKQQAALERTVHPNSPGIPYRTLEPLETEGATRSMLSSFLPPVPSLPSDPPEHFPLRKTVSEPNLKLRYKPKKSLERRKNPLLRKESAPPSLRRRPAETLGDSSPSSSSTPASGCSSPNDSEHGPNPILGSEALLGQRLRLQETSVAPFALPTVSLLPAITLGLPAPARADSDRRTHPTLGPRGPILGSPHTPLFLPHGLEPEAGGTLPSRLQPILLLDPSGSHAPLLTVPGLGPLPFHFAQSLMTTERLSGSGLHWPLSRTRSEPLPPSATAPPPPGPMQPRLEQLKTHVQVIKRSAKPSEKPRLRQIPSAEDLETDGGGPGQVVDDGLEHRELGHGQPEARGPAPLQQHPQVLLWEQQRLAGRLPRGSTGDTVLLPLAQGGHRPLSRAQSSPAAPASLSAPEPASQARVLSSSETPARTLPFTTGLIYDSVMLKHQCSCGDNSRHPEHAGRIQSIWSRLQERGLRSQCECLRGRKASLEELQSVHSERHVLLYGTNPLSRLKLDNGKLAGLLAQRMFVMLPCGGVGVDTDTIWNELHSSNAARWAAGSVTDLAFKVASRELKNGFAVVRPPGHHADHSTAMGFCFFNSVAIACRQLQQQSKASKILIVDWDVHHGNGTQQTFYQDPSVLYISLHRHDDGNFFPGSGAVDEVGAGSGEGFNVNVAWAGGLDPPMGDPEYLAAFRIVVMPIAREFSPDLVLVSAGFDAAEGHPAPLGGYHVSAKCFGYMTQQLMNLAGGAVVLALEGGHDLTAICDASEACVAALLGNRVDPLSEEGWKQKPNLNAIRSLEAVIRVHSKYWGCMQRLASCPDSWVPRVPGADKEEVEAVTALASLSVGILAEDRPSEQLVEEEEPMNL

[1] = tested on: Huh-7 (human hepatoma cells); assay: MTT cancer cell growth inhibition; type: cell-based; settings: Homo sapiens, Huh-7, 72 h, MTT, 72 hours incubation, Huh-7 cells; read-out: GI50 Huh-7
In short: (§1)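 Growth inhibition is scored with MTT after three days of compound treatment spanning 10^−5–10^−10 M. Cells are maintained in DMEM or 1640 medium containing 10% FBS and plated at 1500 per well the previous night; absorbance at 570 nm gives viability, from which GI50 is calculated.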

[2] = tested on: H1975 (non-small cell lung adenocarcinoma); assay: MTT cancer cell growth inhibition; type: cell-based; settings: Homo sapiens, NCI-H1975, 72 h, MTT, 72 hours incubation, H1975 cells; read-out: GI50 H1975
In short: as §1

[3] = tested on: MCF-7 (human breast cancer cells); assay: MTT cancer cell growth inhibition; type: cell-based; settings: Homo sapiens, MCF7, 72 h, MCF-7 cells, 72 hours incubation, read-out: GI50 MCF
In short: as §1

[4] = tested on: N-87 (human gastric cancer cells); assay: MTT cancer cell growth inhibition; type: cell-based; settings: Homo sapiens, 72 h, MTT, 72 hours incubation, N-87 cells; read-out: GI50 N-87
In short: as §1

[5] = tested on: Hela (human cervical cancer cells); assay: MTT cancer cell growth inhibition; type: cell-based; settings: Homo sapiens, HeLa, 72 h, Hela cells, MTT, 72 hours incubation; read-out: GI50 Hela
In short: as §1

[6] = tested on: A549 (human lung cancer cells); assay: MTT cancer cell growth inhibition; type: cell-based; settings: Homo sapiens, A549, 72 h, A549 cells, MTT, 72 hours incubation; read-out: GI50 A54
In short: as §1

[7] = tested on: BGC-823 (human gastric cancer cells); assay: MTT cancer cell growth inhibition; type: cell-based; settings: Homo sapiens, BGC-823, 72 h, BGC-823 cells, MTT, 72 hours incubation; read-out: GI50 BG
In short: as §1

[8] = tested on: PANC-1 (Pac-1, human pancreatic cancer cells); assay: MTT cancer cell growth inhibition; type: cell-based; settings: Homo sapiens, PANC-1, 72 h, PANC-1 cells, MTT, 72 hours incubation; read-out: GI50 PAN
In short: as §1

[9] = tested on: lncap (prostate cancer cells); assay: MTT cancer cell growth inhibition; type: cell-based; settings: Homo sapiens, LNCaP, 72 h, lncap cells, MTT, 72 hours incubation; read-out: GI50 lnca
In short: as §1

[10] = tested on: Bel-7402 (human hepatoma cells); assay: MTT cancer cell growth inhibition; type: cell-based; settings: Homo sapiens, Bel-7402, 72 h, MTT, 72 hours incubation, Bel-7402 cells; read-out: GI50 Bel-7402
In short: as §1

[11] = tested on: HCC827 (human non-small cell lung cancer cells); assay: MTT cancer cell growth inhibition; type: cell-based; settings: Homo sapiens, HCC827, 72 h, MTT, 72 hours incubation, HCC827 cells; read-out: GI50 HCC827
In short: as §1

[12] = tested on: MDA-MB-231 (breast cancer cells); assay: MTT cancer cell growth inhibition; type: cell-based; settings: Homo sapiens, MDA-MB-231, 72 h, read-out: GI50 MDA-MB-231, MTT, 72 hours incubation, MDA-MB-231 cells
In short: as §1

[13] = tested on: U937 (human leukemia cells); assay: MTT cancer cell growth inhibition; type: cell-based; settings: Homo sapiens, U-937, 72 h, U937 cells, MTT, 72 hours incubation; read-out: GI50 U93
In short: as §1

[14] = tested on: KBM-5 (human chronic myelogenous leukemia); assay: MTT cancer cell growth inhibition; type: cell-based; settings: Homo sapiens, KBM5, 72 h, MTT, 72 hours incubation, KBM-5 cells; read-out: GI50 KBM-5
In short: as §1

[15] = tested on: HT1080 (human fibrosarcoma cells); assay: MTT cancer cell growth inhibition; type: cell-based; settings: Homo sapiens, HT-1080, 72 h, HT1080 cells, MTT, 72 hours incubation; read-out: GI50 HT1
In short: as §1

[16] = tested on: MOLT-4 (human acute lymphoblastic leukemia cells); assay: MTT cancer cell growth inhibition; type: cell-based; settings: Homo sapiens, MOLT-4, 72 h, MOLT-4 cells, MTT, 72 hours incubation; read-out: GI50 Mol
In short: as §1

[17] = tested on: DU145 (human prostate cancer cells); assay: MTT cancer cell growth inhibition; type: cell-based; settings: Homo sapiens, DU-145, 72 h, DU145 cells, MTT, 72 hours incubation; read-out: GI50 Du1
In short: as §1

[18] = tested on: KBM5-T315I (human chronic myelogenous leukemia); assay: MTT cancer cell growth inhibition; type: cell-based; settings: Homo sapiens, 72 h, MTT, 72 hours incubation, KBM5-T315I cells; read-out: GI50 KBM5-T315I
In short: as §1

[19] = tested on: K562 (human leukemia cells); assay: MTT cancer cell growth inhibition; type: cell-based; settings: Homo sapiens, K562, 72 h, MTT, 72 hours incubation, K562 cells; read-out: GI50 K562
In short: as §1

[20] = tested on: SGC-7901 (human gastric cancer cells); assay: MTT cancer cell growth inhibition; type: cell-based; settings: Homo sapiens, SGC-7901, 72 h, MTT, 72 hours incubation, SGC-7901 cells; read-out: GI50 SGC-7901
In short: as §1

Row | Compound | IC50 HDAC7 (HDAC7) | GI50 [1] | GI50 [2] | GI50 [3] | GI50 [4] | GI50 [5] | GI50 [6] | GI50 [7] | GI50 [8] | GI50 [9] | GI50 [10] | GI50 [11] | GI50 [12] | GI50 [13] | GI50 [14] | GI50 [15] | GI50 [16] | GI50 [17] | GI50 [18] | GI50 [19] | other results
1 | C/C=C1\NC(=O)c2cc(SC)cc(n2)CNC(=O)C[C@@H](/C=C/CCSC(C)=O)OC(=O)[C@H](CCCCNC(=O)OCC2c3ccccc3-c3ccccc32)NC1=O [Compound 196] | no activity | 23 nM | 62 nM | 60 nM | 56 nM | 80 nM | 20 nM | 50 nM | 60 nM | 60 nM | 89 nM | 64 nM | 85 nM | 60 nM | 28 nM | 70 nM | 30 nM | 130 nM | 93 nM | 58 nM | GI50 [20]: 45 nM
2 | C/C=C1\NC(=O)c2ccc(SC)c(n2)CNC(=O)C[C@@H](/C=C/CCSC(C)=O)OC(=O)[C@H](CCCCNC(=O)OCC2c3ccccc3-c3ccccc32)NC1=O [Compound 197] | no activity | 76 nM | 45 nM | 50 nM | 28 nM | 70 nM | 60 nM | 40 nM | 40 nM | 30 nM | 52 nM | 71 nM | 16 nM | 80 nM | 86 nM | 50 nM | 40 nM | 50 nM | 21 nM | 49 nM | GI50 [20]: 43 nM
3 | C/C=C1\NC(=O)c2nc(ccc2SC)CNC(=O)C[C@@H](/C=C/CCSC(C)=O)OC(=O)[C@H](Cc2cccc3ccccc23)NC1=O [Compound 198] | no activity | 47 nM | 31 nM | 110 nM | 38 nM | 30 nM | 50 nM | 70 nM | 30 nM | 90 nM | 63 nM | 57 nM | 45 nM | 50 nM | 99 nM | 20 nM | 20 nM | 50 nM | 43 nM | 79 nM | GI50 [20]: 16 nM
4 | C/C=C1\NC(=O)c2cc(SC)cc(n2)CNC(=O)C[C@@H](/C=C/CCSC(C)=O)OC(=O)[C@H](Cc2cccc3ccccc23)NC1=O [Compound 199] | no activity | 35 nM | 78 nM | 80 nM | 27 nM | 30 nM | 40 nM | 90 nM | 10 nM | 40 nM | 42 nM | 47 nM | 51 nM | 30 nM | 17 nM | 40 nM | 30 nM | 50 nM | 29 nM | 81 nM | GI50 [20]: 67 nM
